Values quoted from earlier work in patent publication US20160338951A1 (Gavis Pharmaceuticals, priority 2015, published 2016).

Settings: olopatadine by itself, water pH about 7.0, room temperature

SMILES: CN(C)CC/C=C1/c2ccccc2COc2ccc(CC(=O)O)cc21 [olopatadine, 11-[(Z)-3(Dimethylamino)propylidene]-6-11dihydrodibenz [b,e] oxepin-2-acetic acid]
- soluble in water up to a concentration: about 0.18 w/v %
